Legend:
Format in all cases: in vivo
[1] = test system: Echinochloa oryzoides (Ard.) Fritsch.; assay: Preemergence weed control under flooded paddy conditions, ECHORC (Watergrass (Calif.)); settings: flooded paddy, rated three to four weeks after treatment; on herbicidal effect rating, ECHORC: meaning of each grade not given here
Cyperus iria = assay: Preemergence weed control under flooded paddy conditions, CYPIR (Rice Flatsedge); settings: flooded paddy, rated three to four weeks after treatment; on herbicidal effect rating, CYPIR: meaning of each grade not given here
[2] = test system: Cyperus serotinus, Rottb.; assay: Preemergence weed control under flooded paddy conditions, CYPSE (Flatsedge); settings: rated three to four weeks after treatment; on herbicidal effect rating, CYPSE: meaning of each grade not given here
[3] = test system: Monochoria vaginalis, Presl.; assay: Preemergence weed control under flooded paddy conditions, MOOVA (Monochoria); settings: flooded paddy, rated three to four weeks after treatment; on herbicidal effect rating, MOOVA: meaning of each grade not given here
Sagittaria pygmaea, L. = assay: Preemergence weed control under flooded paddy conditions, SAGPY (Arrowhead (Pygmaea)); settings: flooded paddy, rated three to four weeks after treatment; on herbicidal effect rating, SAGPY: meaning of each grade not given here
[4] = 0.0313 kg/ha, preemergence weeds
[5] = 0.0625 kg/ha, preemergence weeds
[6] = 0.1250 kg/ha, preemergence weeds
[7] = 0.2500 kg/ha, preemergence weeds
[8] = Rate 0.0313 kg/ha, preemergence
[9] = Rate 0.0625 kg/ha, preemergence
[10] = Rate 0.1250 kg/ha, preemergence
[11] = Rate 0.2500 kg/ha, preemergence
[12] = Rate 0.0320 kg/ha, preemergence weeds
[13] = Rate 0.0620 kg/ha, preemergence weeds
[14] = Rate 0.1250 kg/ha, preemergence weeds
[15] = Rate 0.2500 kg/ha, preemergence weeds
[16] = Rate 0.0320 kg/ha, preemergence
[17] = Rate 0.0620 kg/ha, preemergence
[18] = Rate 0.5000 kg/ha, preemergence

Cc1ccc(OCC(=O)n2cnc3ccccc32)c(-c2nsc3ccc(-n4c(=O)cc(C(F)(F)F)n(C)c4=O)cc23)c1 [Example 62]
herbicidal effect rating, ECHORC ([1]; 0.0313 kg/ha, preemergence): 6.0 | herbicidal effect rating, ECHORC ([1]; 0.0625 kg/ha, preemergence): 9.0 | herbicidal effect rating, ECHORC ([1]; 0.1250 kg/ha, preemergence): 9.0 | herbicidal effect rating, ECHORC ([1]; 0.2500 kg/ha, preemergence): 9.0 | herbicidal effect rating, CYPIR (Cyperus iria; 0.0313 kg/ha, preemergence): 4.0 | herbicidal effect rating, CYPIR (Cyperus iria; 0.0625 kg/ha, preemergence): 6.0 | herbicidal effect rating, CYPIR (Cyperus iria; 0.1250 kg/ha, preemergence): 9.0 | herbicidal effect rating, CYPIR (Cyperus iria; 0.2500 kg/ha, preemergence): 9.0 | herbicidal effect rating, CYPSE ([2]; 0.0313 kg/ha, preemergence): 0.0 | herbicidal effect rating, CYPSE ([2]; 0.0625 kg/ha, preemergence): 1.0 | herbicidal effect rating, CYPSE ([2]; 0.1250 kg/ha, preemergence): 2.0 | herbicidal effect rating, CYPSE ([2]; 0.2500 kg/ha, preemergence): 9.0 | herbicidal effect rating, MOOVA ([3]; 0.0313 kg/ha, preemergence): 9.0 | herbicidal effect rating, MOOVA ([3]; 0.0625 kg/ha, preemergence): 9.0 | herbicidal effect rating, MOOVA ([3]; 0.1250 kg/ha, preemergence): 9.0 | herbicidal effect rating, MOOVA ([3]; 0.2500 kg/ha, preemergence): 9.0 | herbicidal effect rating, SAGPY (Sagittaria pygmaea, L.; 0.0313 kg/ha, preemergence): 0.0 | herbicidal effect rating, SAGPY (Sagittaria pygmaea, L.; 0.0625 kg/ha, preemergence): 1.0 | herbicidal effect rating, SAGPY (Sagittaria pygmaea, L.; 0.1250 kg/ha, preemergence): 4.0 | herbicidal effect rating, SAGPY (Sagittaria pygmaea, L.; 0.2500 kg/ha, preemergence): 7.0

COC(=O)C=CCOc1ccc(C)cc1-c1nsc2ccc(-n3c(=O)cc(C(F)(F)F)n(C)c3=O)cc12 [Example 188, Methyl 4-{{2-{5-[3,6-dihydro-3-methyl-2,6-dioxo-4-(trifluoromethyl)-1(2H)-pyrimidinyl]-1,2-benzisothiazol-3-yl}-p-tolyl}oxy}-2-butenoate, (E)- and (Z)-]
herbicidal effect rating, ECHORC [1, 4]: 0.0 | herbicidal effect rating, ECHORC [1, 5]: 0.0 | herbicidal effect rating, ECHORC [1, 6]: 2.0 | herbicidal effect rating, ECHORC [1, 7]: 8.0 | herbicidal effect rating, CYPIR (Cyperus iria; [4]): 0.0 | herbicidal effect rating, CYPIR (Cyperus iria; [5]): 0.0 | herbicidal effect rating, CYPIR (Cyperus iria; [6]): 0.0 | herbicidal effect rating, CYPIR (Cyperus iria; [7]): 0.0 | herbicidal effect rating, CYPSE [2, 4]: 0.0 | herbicidal effect rating, MOOVA [3, 4]: 9.0 | herbicidal effect rating, MOOVA [3, 5]: 9.0 | herbicidal effect rating, MOOVA [3, 6]: 9.0 | herbicidal effect rating, MOOVA [3, 7]: 9.0 | herbicidal effect rating, SAGPY (Sagittaria pygmaea, L.; [4]): 0.0 | herbicidal effect rating, SAGPY (Sagittaria pygmaea, L.; [5]): 0.0 | herbicidal effect rating, SAGPY (Sagittaria pygmaea, L.; [6]): 0.0 | herbicidal effect rating, SAGPY (Sagittaria pygmaea, L.; [7]): 0.0

CC(C)=NOC(=O)COc1ccc(C)cc1-c1nsc2ccc(-n3c(=O)cc(C(F)(F)F)n(C)c3=O)cc12 [Example 194]
herbicidal effect rating, ECHORC [1, 4]: 0.0 | herbicidal effect rating, ECHORC [1, 5]: 2.0 | herbicidal effect rating, ECHORC [1, 6]: 6.0 | herbicidal effect rating, ECHORC [1, 7]: 9.0 | herbicidal effect rating, CYPIR (Cyperus iria; [4]): 0.0 | herbicidal effect rating, CYPIR (Cyperus iria; [5]): 0.0 | herbicidal effect rating, CYPIR (Cyperus iria; [6]): 0.0 | herbicidal effect rating, CYPIR (Cyperus iria; [7]): 0.0 | herbicidal effect rating, CYPSE [2, 4]: 0.0 | herbicidal effect rating, CYPSE [2, 5]: 0.0 | herbicidal effect rating, CYPSE [2, 6]: 0.0 | herbicidal effect rating, CYPSE [2, 7]: 0.0 | herbicidal effect rating, MOOVA [3, 4]: 9.0 | herbicidal effect rating, MOOVA [3, 5]: 9.0 | herbicidal effect rating, MOOVA [3, 6]: 9.0 | herbicidal effect rating, MOOVA [3, 7]: 9.0 | herbicidal effect rating, SAGPY (Sagittaria pygmaea, L.; [4]): 0.0 | herbicidal effect rating, SAGPY (Sagittaria pygmaea, L.; [5]): 0.0 | herbicidal effect rating, SAGPY (Sagittaria pygmaea, L.; [6]): 0.0 | herbicidal effect rating, SAGPY (Sagittaria pygmaea, L.; [7]): 0.0

CC(OCc1nsc2ccc(-n3c(=O)cc(C(F)(F)F)n(C)c3=O)cc12)C(F)(F)F (stereo not shown) [Example 208]
ECHORC herbicidal effect rating [1, 8]: 0.0 | ECHORC herbicidal effect rating [1, 9]: 0.0 | ECHORC herbicidal effect rating [1, 10]: 0.0 | ECHORC herbicidal effect rating [1, 11]: 0.0 | CYPIR herbicidal effect rating (Cyperus iria; [8]): 9.0 | CYPIR herbicidal effect rating (Cyperus iria; [9]): 9.0 | CYPIR herbicidal effect rating (Cyperus iria; [10]): 9.0 | CYPIR herbicidal effect rating (Cyperus iria; [11]): 9.0 | CYPSE herbicidal effect rating [2, 8]: 0.0 | CYPSE herbicidal effect rating [2, 9]: 0.0 | CYPSE herbicidal effect rating [2, 10]: 0.0 | CYPSE herbicidal effect rating [2, 11]: 0.0 | MOOVA herbicidal effect rating [3, 8]: 0.0 | MOOVA herbicidal effect rating [3, 9]: 2.0 | MOOVA herbicidal effect rating [3, 10]: 2.0 | MOOVA herbicidal effect rating [3, 11]: 4.0 | SAGPY herbicidal effect rating (Sagittaria pygmaea, L.; [8]): 0.0 | SAGPY herbicidal effect rating (Sagittaria pygmaea, L.; [9]): 0.0 | SAGPY herbicidal effect rating (Sagittaria pygmaea, L.; [10]): 0.0 | SAGPY herbicidal effect rating (Sagittaria pygmaea, L.; [11]): 0.0

CC(OS(C)(=O)=O)c1nsc2ccc(-n3c(=O)cc(C(F)(F)F)n(C)c3=O)cc12 (stereo not shown) [Example 309, 2,4(1H,3H)-Pyrimidinedione, 3-[3-(1-hydroxyethyl)-1,2-benzisothiazol-5-yl]-1-methyl-6-(trifluoromethyl)-, methanesulfonate (ester)]
herbicidal effect rating, ECHORC [1, 12]: 1.0 | herbicidal effect rating, ECHORC [1, 13]: 2.0 | herbicidal effect rating, ECHORC [1, 14]: 4.0 | herbicidal effect rating, ECHORC [1, 15]: 7.0 | herbicidal effect rating, CYPIR (Cyperus iria; [12]): 9.0 | herbicidal effect rating, CYPIR (Cyperus iria; [13]): 9.0 | herbicidal effect rating, CYPIR (Cyperus iria; [14]): 9.0 | herbicidal effect rating, CYPIR (Cyperus iria; [15]): 9.0 | herbicidal effect rating, CYPSE [2, 12]: 0.0 | herbicidal effect rating, CYPSE [2, 13]: 0.0 | herbicidal effect rating, CYPSE [2, 14]: 0.0 | herbicidal effect rating, CYPSE [2, 15]: 7.0 | herbicidal effect rating, MOOVA [3, 12]: 6.0 | herbicidal effect rating, MOOVA [3, 13]: 6.0 | herbicidal effect rating, MOOVA [3, 14]: 9.0 | herbicidal effect rating, MOOVA [3, 15]: 9.0 | herbicidal effect rating, SAGPY (Sagittaria pygmaea, L.; [12]): 2.0 | herbicidal effect rating, SAGPY (Sagittaria pygmaea, L.; [13]): 3.0 | herbicidal effect rating, SAGPY (Sagittaria pygmaea, L.; [14]): 4.0 | herbicidal effect rating, SAGPY (Sagittaria pygmaea, L.; [15]): 8.0

Cn1c(C(F)(F)F)cc(=O)n(-c2ccc3snc(CO[N+](=O)[O-])c3c2)c1=O [Example 310, 2,4(1H,3H)-Pyrimidinedione, 3-[3-(hydroxymethyl)-1,2-benzisothiazol-5-yl]-1-methyl-6-(trifluoromethyl)-, nitrate (ester)]
herbicidal effect rating, ECHORC [1, 12]: 0.0 | herbicidal effect rating, ECHORC [1, 13]: 0.0 | herbicidal effect rating, ECHORC [1, 14]: 2.0 | herbicidal effect rating, ECHORC [1, 15]: 3.0 | herbicidal effect rating, CYPIR (Cyperus iria; [12]): 9.0 | herbicidal effect rating, CYPIR (Cyperus iria; [13]): 9.0 | herbicidal effect rating, CYPIR (Cyperus iria; [14]): 9.0 | herbicidal effect rating, CYPIR (Cyperus iria; [15]): 9.0 | herbicidal effect rating, CYPSE [2, 12]: 0.0 | herbicidal effect rating, CYPSE [2, 13]: 0.0 | herbicidal effect rating, CYPSE [2, 14]: 0.0 | herbicidal effect rating, CYPSE [2, 15]: 0.0 | herbicidal effect rating, MOOVA [3, 12]: 9.0 | herbicidal effect rating, MOOVA [3, 13]: 9.0 | herbicidal effect rating, MOOVA [3, 14]: 9.0 | herbicidal effect rating, MOOVA [3, 15]: 9.0 | herbicidal effect rating, SAGPY (Sagittaria pygmaea, L.; [12]): 0.0 | herbicidal effect rating, SAGPY (Sagittaria pygmaea, L.; [13]): 0.0 | herbicidal effect rating, SAGPY (Sagittaria pygmaea, L.; [14]): 0.0 | herbicidal effect rating, SAGPY (Sagittaria pygmaea, L.; [15]): 0.0

Cn1c(C(F)(F)F)cc(=O)n(-c2ccc3snc(COS(C)(=O)=O)c3c2)c1=O [Example 363, 2,4(1H,3H)-Pyrimidinedione, 3-[3-(hydroxymethyl)-1,2-benzisothiazol-5-yl]-1-methyl-6-(trifluoromethyl)-, methanesulfonate (ester)]
herbicidal effect rating, ECHORC [1, 16]: 3.0 | herbicidal effect rating, ECHORC [1, 17]: 4.0 | herbicidal effect rating, ECHORC [1, 10]: 5.0 | herbicidal effect rating, ECHORC [1, 11]: 6.0 | herbicidal effect rating, ECHORC [1, 18]: 7.0 | herbicidal effect rating, CYPIR (Cyperus iria; [16]): 6.0 | herbicidal effect rating, CYPIR (Cyperus iria; [17]): 7.0 | herbicidal effect rating, CYPIR (Cyperus iria; [10]): 7.0 | herbicidal effect rating, CYPIR (Cyperus iria; [11]): 7.0 | herbicidal effect rating, CYPIR (Cyperus iria; [18]): 8.0 | herbicidal effect rating, CYPSE [2, 16]: 0.0 | herbicidal effect rating, CYPSE [2, 17]: 0.0 | herbicidal effect rating, CYPSE [2, 10]: 5.0 | herbicidal effect rating, CYPSE [2, 11]: 7.0 | herbicidal effect rating, CYPSE [2, 18]: 7.0 | herbicidal effect rating, MOOVA [3, 16]: 9.0 | herbicidal effect rating, MOOVA [3, 17]: 9.0 | herbicidal effect rating, MOOVA [3, 10]: 9.0 | herbicidal effect rating, MOOVA [3, 11]: 9.0 | herbicidal effect rating, MOOVA [3, 18]: 9.0 | herbicidal effect rating, SAGPY (Sagittaria pygmaea, L.; [16]): 3.0 | herbicidal effect rating, SAGPY (Sagittaria pygmaea, L.; [17]): 5.0 | herbicidal effect rating, SAGPY (Sagittaria pygmaea, L.; [10]): 7.0 | herbicidal effect rating, SAGPY (Sagittaria pygmaea, L.; [11]): 9.0 | herbicidal effect rating, SAGPY (Sagittaria pygmaea, L.; [18]): 9.0

Reference: patent EP0908457B1, “3-(1,2-benzisothiazol- and isoxazol-5-Y1)-2,4(1H,3H)-pyrimidinedione or thione and 3-(1,2-benzisothiazol- and isoxazol-5-y1)-4(3H)-pyrimidinone or thione herbicidal agents” (BASF AKTIENGESELLSCHAFT, priority 1997, dated 1999)
